Assay results published in patent publication US20050239656A1, “Pyridine compounds or salts thereof and herbicides containing the same” (priority 2002, published 2005).

What was measured:
[1] = tested on: corn; assay: Test Example 1: foliage treatment, upland pot test; assay type: in vivo, Zea mays L.; conditions: crop, active ingredient 1000 g/ha, observed 18th to 23rd day, 0 = non-treated, 100 = complete kill
Description: (§1) Upland field soil was put into a 1/170,000 ha pot, and seed of various plants were sown. Then, when the plants reached predetermined leaf stages ((1) barnyardgrass: 1.3 to 2.8 leaf stages, (2) crabgrass: 1.0 to 2.8 leaf stages, (3) green foxtail: 1.3 to 2.6 leaf stages, (4) redroot pigweed: 0.1 to 1.2 leaf stages, (5) prickly sida: 0.1 to 1.2 leaf stages, (6) velvetleaf: 0.1 to 1.2 leaf stages, (7) tall morningglory: 0.1 to 1.5 leaf stages, (8) rice: 1.2 to 2.6 leaf stages, (9) wheat: 1.3 to 2.4 leaf stages, (10) corn, 2.1 to 3.2 leaf stages, (11) soybean: 0.1 to 0.4 leaf stage), a wettable powder or emulsifiable concentrate having the compound of the present invention formulated in accordance with a usual formulation method, was weighed so that the active ingredient would be a predetermined amount, and diluted with water in an amount of 500 L/ha. To the diluted solution, 0.1% (v/v) of agricultural spreader was added. The herbicide thus adjusted was applied by a small size sprayer for foliage treatment. On the 18th to 23rd days after the application of the herbicide, the growth of the respective plants was visually observed, and the herbicidal effects were evaluated by the growth controlling degrees (%) ranging from 0 (equivalent to the non-treated plot) to 100 (complete kill), whereby the results shown in Table 3, were obtained.

[2] = tested on: green foxtail; assay: Test Example 2: soil surface treatment, upland pot test; assay type: in vivo, Setaria viridis L.; conditions: observed 20th to 28th day
Summary of the method: (§2)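 A pre-emergence soil application: formulated compound at a predetermined active-ingredient dose, diluted in water to 1,500 L/ha, sprayed on upland soil a day after seeding in 1/170,000 ha pots; growth control rated visually, 0 (untreated level) to 100 (kill), at 20–28 days.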

[3] = tested on: barnyardgrass; assay: Test Example 1: foliage treatment, upland pot test; assay type: in vivo, Echinochloa crus-galli L.; conditions: active ingredient 1000 g/ha, observed 18th to 23rd day, 0 = non-treated, 100 = complete kill
Description: as §1

[4] = tested on: velvetleaf; assay: Test Example 1: foliage treatment, upland pot test; assay type: in vivo, Abutilon theophrasti MEDIC.; conditions: active ingredient 1000 g/ha, observed 18th to 23rd day, 0 = non-treated, 100 = complete kill
Description: as §1

[5] = tested on: barnyardgrass; assay: Test Example 2: soil surface treatment, upland pot test; assay type: in vivo, Echinochloa crus-galli L.; conditions: observed 20th to 28th day
Summary of the method: as §2

[6] = tested on: rice; assay: Test Example 1: foliage treatment, upland pot test; assay type: in vivo, Oryza sativa L.; conditions: crop, active ingredient 1000 g/ha, observed 18th to 23rd day, 0 = non-treated, 100 = complete kill
Description: as §1

[7] = tested on: rice; assay: Test Example 2: soil surface treatment, upland pot test; assay type: in vivo, Oryza sativa L.; conditions: observed 20th to 28th day
Summary of the method: as §2

[8] = tested on: crabgrass; assay: as above; assay type: in vivo, Digitaria sanguinalis L.; conditions: observed 20th to 28th day
Summary of the method: as §2

[9] = tested on: corn; assay: as above; assay type: in vivo, Zea mays L.; conditions: observed 20th to 28th day
Summary of the method: as §2

[10] = tested on: soybean; assay: Test Example 1: foliage treatment, upland pot test; assay type: in vivo, Glycine max Merr.; conditions: crop, active ingredient 1000 g/ha, observed 18th to 23rd day, 0 = non-treated, 100 = complete kill
Description: as §1

[11] = tested on: japanese bulrush; assay: Test Example 3: paddy pot test, application under submerged conditions; assay type: in vivo, Scirpus juncoides; conditions: submerged application at 0.5 leaf stage, visually observed 14 days after application, 0 = non-treated, 100 = complete kill
Summary of the method: (§3)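 Barnyardgrass and japanese bulrush sown in flooded paddy soil in greenhouse pots, japanese ribbon wapato tubers planted 1–2 days later; water depth kept at 3–4 cm. Diluted wettable powder or emulsifiable concentrate applied into water at 0.5-leaf or primary-leaf stage at set active-ingredient doses. Growth control scored visually at 14 days, 0 (untreated) to 100% (complete kill).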

[12] = tested on: redroot pigweed; assay: Test Example 2: soil surface treatment, upland pot test; assay type: in vivo, Amaranthus retroflexus L.; conditions: observed 20th to 28th day
Summary of the method: as §2

[13] = tested on: velvetleaf; assay: as above; assay type: in vivo, Abutilon theophrasti MEDIC.; conditions: observed 20th to 28th day
Summary of the method: as §2

[14] = tested on: soybean; assay: as above; assay type: in vivo, Glycine max Merr.; conditions: observed 20th to 28th day
Summary of the method: as §2

[15] = tested on: green foxtail; assay: Test Example 1: foliage treatment, upland pot test; assay type: in vivo, Setaria viridis L.; conditions: active ingredient 1000 g/ha, observed 18th to 23rd day, 0 = non-treated, 100 = complete kill
Description: as §1

[16] = tested on: japanese ribbon wapato; assay: Test Example 3: paddy pot test, application under submerged conditions; assay type: in vivo, Sagittaria pygniaea; conditions: submerged application at primary leaf stage, visually observed 14 days after application, 0 = non-treated, 100 = complete kill
Summary of the method: as §3

[17] = tested on: prickly sida; assay: Test Example 2: soil surface treatment, upland pot test; assay type: in vivo, Sida spinosa L.; conditions: observed 20th to 28th day
Summary of the method: as §2

[18] = tested on: prickly sida; assay: Test Example 1: foliage treatment, upland pot test; assay type: in vivo, Sida spinosa L.; conditions: active ingredient 1000 g/ha, observed 18th to 23rd day, 0 = non-treated, 100 = complete kill
Description: as §1

[19] = tested on: redroot pigweed; assay: Test Example 1: foliage treatment, upland pot test; assay type: in vivo, Amaranthus retroflexus L.; conditions: active ingredient 1000 g/ha, observed 18th to 23rd day, 0 = non-treated, 100 = complete kill
Description: as §1

[20] = tested on: rice (var. Nihonbare); assay: Test Example 3: paddy pot test, transplanted rice; assay type: in vivo, Oryza sativa L.; conditions: applied 4th day after transplantation, visually observed 21st day after application, 0 = non-treated, 100 = complete kill
Summary of the method: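 Rice (var. Nihonbare) at 2 leaf stage transplanted 3 cm deep into puddled paddy soil under 3–4 cm flooding; on day 4 after transplanting, diluted wettable powder or emulsifiable concentrate applied by pipette under submerged conditions at a set active-ingredient dose. Growth scored visually 21 days after application, 0 (untreated) to 100 (complete kill) %.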

[21] = tested on: barnyardgrass; assay: Test Example 3: paddy pot test, application under submerged conditions; assay type: in vivo, Echinochloa crus-galli L.; conditions: submerged application at 0.5 leaf stage, visually observed 14 days after application, 0 = non-treated, 100 = complete kill
Summary of the method: as §3

## CC(C)C(c1cnccc1C(F)(F)F)N(C)C(=O)Cc1ccccc1Cl (stereo not drawn) [I-26]
[1]
  Growth controlling degree (%) Corn: 30%
[2]; active ingredient 250 g/ha
  Growth controlling degree (%) Green foxtail: 80%
[3]
  Growth controlling degree (%) Barnyardgrass: 90%
[4]
  Growth controlling degree (%) Velvetleaf: 80%
[5]; active ingredient 250 g/ha
  Growth controlling degree (%) Barnyardgrass: 80%
[6]
  Growth controlling degree (%) Rice: 30%
[7]; active ingredient 250 g/ha
  Growth controlling degree (%) Rice: 10%
[8]; active ingredient 250 g/ha
  Growth controlling degree (%) Crabgrass: 80%
[9]; active ingredient 250 g/ha
  Growth controlling degree (%) Corn: 40%
[10]
  Growth controlling degree (%) Soybean: 50%
[11]; active ingredient 500 g/ha
  Growth controlling degree (%) Japanese bulrush: 90%
[12]; active ingredient 250 g/ha
  Growth controlling degree (%) Redroot pigweed: 70%
[13]; active ingredient 250 g/ha
  Growth controlling degree (%) Velvetleaf: 80%
[14]; active ingredient 250 g/ha
  Growth controlling degree (%) Soyabean: 0%
[15]
  Growth controlling degree (%) Green foxtail: 70%
[16]; active ingredient 500 g/ha
  Growth controlling degree (%) Japanese ribbon wapato: 10%
[17]; active ingredient 250 g/ha
  Growth controlling degree (%) Prickly sida: 70%
[18]
  Growth controlling degree (%) Prickly sida: 80%
[19]
  Growth controlling degree (%) Redroot pigweed: 90%
[20]; active ingredient 500 g/ha
  Growth controlling degree (%) Rice: 20%

## CC(C)C(c1cnccc1Cl)N(C)C(=O)Cc1ccc(F)c(F)c1 (stereo not drawn) [I-73]
[1]
  Growth controlling degree (%) Corn: 0%
[3]
  Growth controlling degree (%) Barnyardgrass: 40%
[4]
  Growth controlling degree (%) Velvetleaf: 90%
[6]
  Growth controlling degree (%) Rice: 30%
[10]
  Growth controlling degree (%) Soybean: 70%
[11]; active ingredient 125 g/ha
  Growth controlling degree (%) Japanese bulrush: 90%
[16]; active ingredient 125 g/ha
  Growth controlling degree (%) Japanese ribbon wapato: 20%
[18]
  Growth controlling degree (%) Prickly sida: 85%
[19]
  Growth controlling degree (%) Redroot pigweed: 60%
[21]; active ingredient 125 g/ha
  Growth controlling degree (%) Barnyardgrass: 98%
[20]; active ingredient 125 g/ha
  Growth controlling degree (%) Rice: 0%

## CC(C)C(c1cnccc1Cl)N(C)C(=O)Cc1cccc(C(F)(F)F)c1F (stereo not drawn) [I-74]
[1]
  Growth controlling degree (%) Corn: 30%
[3]
  Growth controlling degree (%) Barnyardgrass: 50%
[4]
  Growth controlling degree (%) Velvetleaf: 90%
[6]
  Growth controlling degree (%) Rice: 20%
[10]
  Growth controlling degree (%) Soybean: 30%
[18]
  Growth controlling degree (%) Prickly sida: 80%
[19]
  Growth controlling degree (%) Redroot pigweed: 60%

## CCN(C(=O)Cc1cccc(C(F)(F)F)c1)C(c1cnccc1C(F)(F)F)C(C)C (stereo not drawn) [I-75]
[1]
  Growth controlling degree (%) Corn: 10%
[2]; active ingredient 500 g/ha
  Growth controlling degree (%) Green foxtail: 100%
[3]
  Growth controlling degree (%) Barnyardgrass: 70%
[4]
  Growth controlling degree (%) Velvetleaf: 90%
[5]; active ingredient 500 g/ha
  Growth controlling degree (%) Barnyardgrass: 100%
[6]
  Growth controlling degree (%) Rice: 20%
[7]; active ingredient 500 g/ha
  Growth controlling degree (%) Rice: 0%
[8]; active ingredient 500 g/ha
  Growth controlling degree (%) Crabgrass: 100%
[9]; active ingredient 500 g/ha
  Growth controlling degree (%) Corn: 10%
[10]
  Growth controlling degree (%) Soybean: 30%
[11]; active ingredient 250 g/ha
  Growth controlling degree (%) Japanese bulrush: 70%
[12]; active ingredient 500 g/ha
  Growth controlling degree (%) Redroot pigweed: 40%
[13]; active ingredient 500 g/ha
  Growth controlling degree (%) Velvetleaf: 70%
[14]; active ingredient 500 g/ha
  Growth controlling degree (%) Soyabean: 0%
[16]; active ingredient 250 g/ha
  Growth controlling degree (%) Japanese ribbon wapato: 40%
[17]; active ingredient 500 g/ha
  Growth controlling degree (%) Prickly sida: 80%
[18]
  Growth controlling degree (%) Prickly sida: 80%
[19]
  Growth controlling degree (%) Redroot pigweed: 60%
[21]; active ingredient 250 g/ha
  Growth controlling degree (%) Barnyardgrass: 100%
[20]; active ingredient 250 g/ha
  Growth controlling degree (%) Rice: 0%

## CCN(C(=O)Cc1cccc(C(F)(F)F)c1F)C(c1cnccc1C(F)(F)F)C(C)C (stereo not drawn) [I-76]
[1]
  Growth controlling degree (%) Corn: 95%
[2]; active ingredient 500 g/ha
  Growth controlling degree (%) Green foxtail: 100%
[3]
  Growth controlling degree (%) Barnyardgrass: 80%
[4]
  Growth controlling degree (%) Velvetleaf: 90%
[5]; active ingredient 500 g/ha
  Growth controlling degree (%) Barnyardgrass: 70%
[6]
  Growth controlling degree (%) Rice: 40%
[7]; active ingredient 500 g/ha
  Growth controlling degree (%) Rice: 10%
[8]; active ingredient 500 g/ha
  Growth controlling degree (%) Crabgrass: 98%
[9]; active ingredient 500 g/ha
  Growth controlling degree (%) Corn: 0%
[10]
  Growth controlling degree (%) Soybean: 70%
[11]; active ingredient 250 g/ha
  Growth controlling degree (%) Japanese bulrush: 100%
[12]; active ingredient 500 g/ha
  Growth controlling degree (%) Redroot pigweed: 70%
[13]; active ingredient 500 g/ha
  Growth controlling degree (%) Velvetleaf: 50%
[14]; active ingredient 500 g/ha
  Growth controlling degree (%) Soyabean: 0%
[16]; active ingredient 250 g/ha
  Growth controlling degree (%) Japanese ribbon wapato: 60%
[17]; active ingredient 500 g/ha
  Growth controlling degree (%) Prickly sida: 100%
[18]
  Growth controlling degree (%) Prickly sida: 70%
[19]
  Growth controlling degree (%) Redroot pigweed: 80%
[21]; active ingredient 250 g/ha
  Growth controlling degree (%) Barnyardgrass: 100%
[20]; active ingredient 250 g/ha
  Growth controlling degree (%) Rice: 10%
